From patent US9120774B2 (University of Kansas, priority 2009, dated 2015) come the findings set out here.

Format in all cases: cell-based
Experiment [1] has as its system SkBr3 (Her2 overexpressing breast cancer cells). As to the kind of experiment: Anti-proliferation activity against SkBr3 cells (MTS/PMS). The settings on record: Homo sapiens, SK-BR-3; Table 6; 72 hours, MTS/PMS; mean ± standard deviation; read-out: IC50 SKBr3. The procedure:
(§1) Upon completion of synthesis of library of compounds in Examples 23 and 24, the compounds were evaluated for anti-proliferative activity against SkBr3 (Her2 overexpressing breast cancer cells), MCF-7 (estrogen receptor positive breast cancer cells), HCT-116 (colon cancer cells characterized by wild-type p53), PL45 (pancreatic cancer cells), LNCaP (androgen sensitive prostate cancer cells) and PC-3 (androgen independent prostate cancer cells) cell lines.
(§2) Cells were maintained in a 1:1 mixture of Advanced DMEM/F12 (Gibco) supplemented with non-essential amino acids, L-glutamine (2 mM), streptomycin (500 ng/mL), penicillin (100 units/mL), and 10% FBS. Cells were grown to confluence in a humidified atmosphere (37° C., 5% CO2), seeded (2000/well, 100 μl) in 96-well plates, and allowed to attach overnight. Compound or GDA at varying concentrations in DMSO (1% DMSO final concentration) was added, and cells were returned to the incubator for 72 hours. At 72 hours, the number of viable cells was determined using an MTS/PMS cell proliferation kit (Promega) per the manufacturer's instructions. Cells incubated in 1% DMSO were used at 100% proliferation, and values were adjusted accordingly. IC50 values were calculated from separate experiments performed in triplicate using GraphPad Prism.
as §2, with “μg/mL),” for “ng/mL),”, “μL)” for “μl)”

For experiment [2], the system named is MCF-7 (estrogen receptor positive breast cancer cells). As to the kind of experiment: Anti-proliferation activity against MCF-7 cells (MTS/PMS). The settings on record: Homo sapiens, MCF7; Table 6; 72 hours, MTS/PMS; mean ± standard deviation; read-out: IC50 MCF-7. As for the experimental part: as §1, §2
as §2, with “μg/mL),” for “ng/mL),”, “μL)” for “μl)”

Experiment [3] has as its system LNCaP (androgen sensitive prostate cancer cells). Description: Anti-proliferation activity against LNCaP cells. The settings on record: for IC50: Homo sapiens, LNCaP, Table 6, 72 hours, MTS/PMS, mean ± standard deviation, read-out: IC50 LnCaP. As for the experimental part:
(§3) Upon completion of synthesis of library of compounds in Examples 23 and 24, the compounds were evaluated for anti-proliferative activity against SkBr3 (Her2 overexpressing breast cancer cells), MCF-7 (estrogen receptor positive breast cancer cells), HCT-116 (colon cancer cells characterized by wild-type p53), PL45 (pancreatic cancer cells), LNCaP (androgen sensitive prostate cancer cells) and PC-3 (androgen independent prostate cancer cells) cell lines. […] The monosubstituted benzamide variants improved activity.
as §2

In experiment [4] the test system is PC-3 (androgen independent prostate cancer cells). Description: Anti-proliferation activity against PC-3 cells. The settings on record: for IC50: Homo sapiens, PC-3, Table 6, 72 hours, MTS/PMS, mean ± standard deviation, read-out: IC50 PC-3. As for the experimental part:
as §3
Cells were maintained in a 1:1 mixture of Advanced DMEM/F12 (Gibco) supplemented with non-essential amino acids, L-glutamine (2 mM), streptomycin (500 ng/mL), penicillin (100 units/mL), and 10% FBS. Cells were grown to confluence in a humidified atmosphere (37° C., 5% CO2), seeded (2000/well, 100 μl) in 96-well plates, and allowed to attach overnight. […] […] Cells incubated in 1% DMSO were used at 100% proliferation, and values were adjusted accordingly. IC50 values were calculated from separate experiments performed in triplicate using GraphPad Prism.

The IC50 is the point on the concentration scale where inhibition reaches its midpoint. With `COc1cccc(-c2cc(C(=O)Nc3cc4cc(OC(C)C)c(O[C@@H]5OC(C)(C)[C@H](OC)[C@@H](O)[C@H]5O)c(C)c4oc3=O)ccc2OC)c1` [26c, N-(7-((2S,3R,4S,5R)-3,4-dihydroxy-5-methoxy-6,6-dimethyltetrahydro-2H-pyran-2-yloxy)-6-isopropoxy-8-methyl-2-oxo-2H-chromen-3-yl)-3′,6-dimethoxybiphenyl-3-carboxamide], the IC50 in experiment [1] was 58.6 ± 5.4 µM; in experiment [2], 66.9 ± 3.1 µM; in experiment [3], 14.4 ± 4.2 µM; in experiment [4], 60.7 ± 9.1 µM. In addition, in experiment [3] (LnCaP cells), the “times less active than the corresponding 6-H” value is ~7 times.
For the compound `COc1cccc(-c2cc(C(=O)Nc3cc4ccc(O[C@@H]5OC(C)(C)[C@H](OC)[C@@H](O)[C@H]5O)c(Cc5ccccc5)c4oc3=O)ccc2OC)c1` [26e, N-(8-benzyl-7-((2R,3R,4S,5R)-3,4-dihydroxy-5-methoxy-6,6-dimethyltetrahydro-2H-pyran-2-yloxy)-2-oxo-2H-chromen-3-yl)-3′,6-dimethoxybiphenyl-3-carboxamide], the IC50 in experiment [1] is > 100 µM; in experiment [2], > 100 µM; in experiment [3], 49.7 ± 25 µM; in experiment [4], > 100 µM.
As for `COc1cccc(-c2cc(C(=O)Nc3cc4ccc(O[C@@H]5OC(C)(C)[C@H](OC)[C@@H](O)[C@H]5O)c(-c5ccccc5)c4oc3=O)ccc2OC)c1` [26f, N-(7-((2R,3R,4S,5R)-3,4-dihydroxy-5-methoxy-6,6-dimethyltetrahydro-2H-pyran-2-yloxy)-2-oxo-8-phenyl-2H-chromen-3-yl)-3′,6-dimethoxybiphenyl-3-carboxamide], the IC50 in experiment [1] was 17.3 ± 3.4 µM; in experiment [2], > 100 µM; in experiment [3], 1 ± 0.1 µM; in experiment [4], > 100 µM.
`CCc1c(O[C@@H]2OC(C)(C)[C@H](OC)[C@@H](O)[C@H]2O)ccc2cc(NC(=O)c3ccc(OC)c(-c4cccc(OC)c4)c3)c(=O)oc12` [26h, N-(7-((2R,3R,4S,5R)-3,4-dihydroxy-5-methoxy-6,6-dimethyltetrahydro-2H-pyran-2-yloxy)-8-ethyl-2-oxo-2H-chromen-3-yl)-3′,6-dimethoxybiphenyl-3-carboxamide]: the IC50 in experiment [1] came out at 28.6 ± 1.1 µM; in experiment [2], 41.7 ± 14 µM; in experiment [3], 1.6 ± 0.3 µM; in experiment [4] it was 1.8 ± 0.6 µM. Further, in experiment [4] (PC-3 cells), the “fold increased activity versus the 8-methyl derivative” value is 10 fold.
Regarding `COc1cc2cc(NC(=O)c3cc4ccccc4[nH]3)c(=O)oc2c(C)c1O[C@@H]1OC(C)(C)[C@H](OC)[C@@H](O)[C@H]1O` [26i, N-(7-((2S,3R,4S,5R)-3,4-dihydroxy-5-methoxy-6,6-dimethyltetrahydro-2H-pyran-2-yloxy)-6-methoxy-8-methyl-2-oxo-2H-chromen-3-yl)-1H-indole-2-carboxamide], the IC50 stood at 25.1 ± 7.7 µM in experiment [1], 24.4 ± 1.2 µM in experiment [2], 10.5 ± 0.3 µM in experiment [3] and 20.2 ± 9.8 µM in experiment [4].
For `CCCOc1cc2cc(NC(=O)c3cc4ccccc4[nH]3)c(=O)oc2c(C)c1O[C@@H]1OC(C)(C)[C@H](OC)[C@@H](O)[C@H]1O` [26j, N-(7-((2S,3R,4S,5R)-3,4-dihydroxy-5-methoxy-6,6-dimethyltetrahydro-2H-pyran-2-yloxy)-8-methyl-2-oxo-6-propoxy-2H-chromen-3-yl)-1H-indole-2-carboxamide], the IC50 in experiment [1] is 2.1 ± 0.8 µM; in experiment [2] it was 2.1 ± 0.1 µM; in experiment [3], 1.8 ± 0.7 µM; in experiment [4] it was 6.2 ± 1.8 µM.
For `CO[C@@H]1[C@@H](O)[C@@H](O)[C@H](Oc2c(OC(C)C)cc3cc(NC(=O)c4cc5ccccc5[nH]4)c(=O)oc3c2C)OC1(C)C` [26k, N-(7-((2S,3R,4S,5R)-3,4-dihydroxy-5-methoxy-6,6-dimethyltetrahydro-2H-pyran-2-yloxy)-6-isopropoxy-8-methyl-2-oxo-2H-chromen-3-yl)-1H-indole-2-carboxamide], the concentration for half-maximal inhibition (IC50) was found to be 20.7 ± 0.4 µM in experiment [1], 20 ± 1 µM in experiment [2], 11.4 µM in experiment [3] and 11.9 µM in experiment [4].
